Test results reported in patent publication US12077503B2, “Substituted cyclic amides and their use as herbicides” (FMC CORPORATION, priority 2015, dated 2024).

Tests used:
Type in all cases: in vivo
[1] = tested on: barnyardgrass (Echinochloa crus-galli); assay: Test G Pre-Emergence Protocol; settings: Echinochloa crus-galli, pre-emergence, 312 h, evaluated after 13 days; for pest or weed control at 15.625 g/ha: 15.625 g ai/ha, read-out: Barnyard grass damage rating (100=total damage to plant; 0=no damage to plant); for pest or weed control at 62.5 g/ha: 62.5 g ai/ha, 100=total damage to plant, 0=no damage to plant, read-out: plant damage rating, Barnyardgrass; for pest or weed control at 250 g/ha: 250 g ai/ha, read-out: Barnyardgrass damage rating (100=total damage to plant; 0=no damage to plant)
Method in brief: (§1)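 Under a 24/16° C day/night regime with 14 h light and 65% humidity, sown pots were sprayed after one day with compound (15.625, 62.5 or 250 g/ha; 50:50 acetone/water, 0.5% Tween 20). Damage was assessed visually 13 days later, 0 to 100.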

[2] = tested on: giant foxtail (Setaria faberi); assay: Test G Pre-Emergence Protocol; settings: Setaria faberi, pre-emergence, 312 h, evaluated after 13 days; for pest or weed control at 15.625 g/ha: 15.625 g ai/ha; for pest or weed control at 15.625 g/ha / pest or weed control at 250 g/ha: read-out: Foxtail, Giant damage rating (100=total damage to plant; 0=no damage to plant); for pest or weed control at 62.5 g/ha: 62.5 g ai/ha, 100=total damage to plant, 0=no damage to plant, read-out: plant damage rating, Foxtail, Giant; for pest or weed control at 250 g/ha: 250 g ai/ha
Method in brief: as §1

[3] = tested on: ivy-leaved morning glory (Ipomoea hederacea); assay: Test G Pre-Emergence Protocol; settings: Ipomoea, pre-emergence, 312 h, evaluated after 13 days; for pest or weed control at 15.625 g/ha: 15.625 g ai/ha, read-out: Morning-glory, Ivy-leaved damage rating (100=total damage to plant; 0=no damage to plant); for pest or weed control at 62.5 g/ha: 62.5 g ai/ha, 100=total damage to plant, 0=no damage to plant, read-out: plant damage rating, Morningglory, Ivy-leaved; for pest or weed control at 250 g/ha: 250 g ai/ha, read-out: Morningglory, Ivy-leaved damage rating (100=total damage to plant; 0=no damage to plant)
Method in brief: as §1

[4] = tested on: velvetleaf (Abutilon theophrasti); assay: Test G Pre-Emergence Protocol; settings: Abutilon theophrasti, pre-emergence, 312 h, evaluated after 13 days; for pest or weed control at 15.625 g/ha: 15.625 g ai/ha; for pest or weed control at 15.625 g/ha / pest or weed control at 250 g/ha: read-out: Velvetleaf damage rating (100=total damage to plant; 0=no damage to plant); for pest or weed control at 62.5 g/ha: 62.5 g ai/ha, 100=total damage to plant, 0=no damage to plant, read-out: plant damage rating, Velvetleaf; for pest or weed control at 250 g/ha: 250 g ai/ha
Method in brief: as §1

corn (Zea mays) [5] = assay: Test G Pre-Emergence Protocol; settings: Zea mays, pre-emergence, 312 h, evaluated after 13 days; for plant injury at 15.625 g/ha: 15.625 g ai/ha; for plant injury at 15.625 g/ha / plant injury at 250 g/ha: read-out: Corn damage rating (100=total damage to plant; 0=no damage to plant); for plant injury at 62.5 g/ha: 62.5 g ai/ha, 100=total damage to plant, 0=no damage to plant, read-out: plant damage rating, Corn; for plant injury at 250 g/ha: 250 g ai/ha
Method in brief: as §1

[6] = tested on: redroot pigweed (Amaranthus retroflexus); assay: Test G Pre-Emergence Protocol; settings: Amaranthus retroflexus, pre-emergence, 312 h, evaluated after 13 days; for pest or weed control at 15.625 g/ha: 15.625 g ai/ha; for pest or weed control at 15.625 g/ha / pest or weed control at 250 g/ha: read-out: Pigweed, Redroot damage rating (100=total damage to plant; 0=no damage to plant); for pest or weed control at 62.5 g/ha: 62.5 g ai/ha, 100=total damage to plant, 0=no damage to plant, read-out: plant damage rating, Pigweed, Redroot; for pest or weed control at 250 g/ha: 250 g ai/ha
Method in brief: as §1

[7] = tested on: barnyardgrass (Echinochloa crus-galli); assay: Test G Post-Emergence Protocol; settings: Echinochloa crus-galli, post-emergence, 312 h; for pest or weed control at 15.625 g/ha: 15.625 g ai/ha, evaluated after 13 days (100=total damage to plant; 0=no damage to plant), read-out: Barnyardgrass damage rating; for pest or weed control at 62.5 g/ha: 62.5 g ai/ha, read-out: Barnyardgrass damage rating (100=total damage to plant; 0=no damage to plant); for pest or weed control at 62.5 g/ha / pest or weed control at 250 g/ha: evaluated after 13 days; for pest or weed control at 250 g/ha: 250 g ai/ha, read-out: damage to plant, Barnyardgrass (100=total damage to plant; 0=no damage to plant)
Method in brief: (§2)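 Pot-grown seedlings, 8 days old, raised in a glasshouse at 24/16 °C day/night with 14 h light and 65% humidity, were sprayed post-emergence with test compound in acetone/water (50:50) plus 0.5% Tween 20 at 15.625, 62.5 or 250 g/ha. Damage was scored visually 13 days later on a 0–100 scale (100 = total damage).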

[8] = tested on: giant foxtail (Setaria faberi); assay: Test G Post-Emergence Protocol; settings: Setaria faberi, post-emergence, 312 h; for pest or weed control at 15.625 g/ha: 15.625 g ai/ha, evaluated after 13 days (100=total damage to plant; 0=no damage to plant), read-out: Foxtail, Giant damage rating; for pest or weed control at 62.5 g/ha: 62.5 g ai/ha, read-out: Foxtail, Giant damage rating (100=total damage to plant; 0=no damage to plant); for pest or weed control at 62.5 g/ha / pest or weed control at 250 g/ha: evaluated after 13 days; for pest or weed control at 250 g/ha: 250 g ai/ha, read-out: damage to plant, Foxtail, Giant (100=total damage to plant; 0=no damage to plant)
Method in brief: as §2

[9] = tested on: ivy-leaved morning glory (Ipomoea hederacea); assay: Test G Post-Emergence Protocol; settings: Ipomoea, post-emergence, 312 h; for pest or weed control at 15.625 g/ha: 15.625 g ai/ha, evaluated after 13 days (100=total damage to plant; 0=no damage to plant), read-out: Morningglory, Ivy-leaved damage rating; for pest or weed control at 62.5 g/ha: 62.5 g ai/ha, read-out: Morningglory, Ivy-leaved damage rating (100=total damage to plant; 0=no damage to plant); for pest or weed control at 62.5 g/ha / pest or weed control at 250 g/ha: evaluated after 13 days; for pest or weed control at 250 g/ha: 250 g ai/ha, read-out: damage to plant, Morningglory, Ivy-leaved (100=total damage to plant; 0=no damage to plant)
Method in brief: as §2

[10] = tested on: velvetleaf (Abutilon theophrasti); assay: Test G Post-Emergence Protocol; settings: Abutilon theophrasti, post-emergence, 312 h; for pest or weed control at 15.625 g/ha: 15.625 g ai/ha, evaluated after 13 days (100=total damage to plant; 0=no damage to plant), read-out: Velvetleaf damage rating; for pest or weed control at 62.5 g/ha: 62.5 g ai/ha, read-out: Velvetleaf damage rating (100=total damage to plant; 0=no damage to plant); for pest or weed control at 62.5 g/ha / pest or weed control at 250 g/ha: evaluated after 13 days; for pest or weed control at 250 g/ha: 250 g ai/ha, read-out: damage to plant, Velvetleaf (100=total damage to plant; 0=no damage to plant)
Method in brief: as §2

corn (Zea mays) [11] = assay: Test G Post-Emergence Protocol; settings: Zea mays, post-emergence, 312 h; for plant injury at 15.625 g/ha: 15.625 g ai/ha, evaluated after 13 days (100=total damage to plant; 0=no damage to plant), read-out: Corn damage rating; for plant injury at 62.5 g/ha: 62.5 g ai/ha, read-out: Corn damage rating (100=total damage to plant; 0=no damage to plant); for plant injury at 62.5 g/ha / plant injury at 250 g/ha: evaluated after 13 days; for plant injury at 250 g/ha: 250 g ai/ha, read-out: damage to plant, Corn (100=total damage to plant; 0=no damage to plant)
Method in brief: as §2

[12] = tested on: redroot pigweed (Amaranthus retroflexus); assay: Test G Post-Emergence Protocol; settings: Amaranthus retroflexus, post-emergence, 312 h; for pest or weed control at 15.625 g/ha: 15.625 g ai/ha, evaluated after 13 days (100=total damage to plant; 0=no damage to plant), read-out: Pigweed, Redroot damage rating; for pest or weed control at 62.5 g/ha: 62.5 g ai/ha, read-out: Pigweed, Redroot damage rating (100=total damage to plant; 0=no damage to plant); for pest or weed control at 62.5 g/ha / pest or weed control at 250 g/ha: evaluated after 13 days; for pest or weed control at 250 g/ha: 250 g ai/ha, read-out: damage to plant, Pigweed, Redroot (100=total damage to plant; 0=no damage to plant)
Method in brief: as §2

| Compound | pest or weed control at 15.625 g/ha [1] [%] | pest or weed control at 62.5 g/ha [1] [%] | pest or weed control at 250 g/ha [1] [%] | pest or weed control at 15.625 g/ha [2] [%] | pest or weed control at 62.5 g/ha [2] [%] | pest or weed control at 250 g/ha [2] [%] | pest or weed control at 15.625 g/ha [3] [%] | pest or weed control at 62.5 g/ha [3] [%] | pest or weed control at 250 g/ha [3] [%] | pest or weed control at 15.625 g/ha [4] [%] | pest or weed control at 62.5 g/ha [4] [%] | pest or weed control at 250 g/ha [4] [%] | plant injury at 15.625 g/ha (corn (Zea mays) [5]) [%] | plant injury at 62.5 g/ha (corn (Zea mays) [5]) [%] | plant injury at 250 g/ha (corn (Zea mays) [5]) [%] | pest or weed control at 15.625 g/ha [6] [%] | pest or weed control at 62.5 g/ha [6] [%] | pest or weed control at 250 g/ha [6] [%] | pest or weed control at 15.625 g/ha [7] [%] | pest or weed control at 62.5 g/ha [7] [%] | further results |
| --- | --- | --- | --- | --- | --- | --- | --- | --- | --- | --- | --- | --- | --- | --- | --- | --- | --- | --- | --- | --- | --- |
| CN1C[C@H](c2ccc(C(F)(F)F)cc2)[C@@H](C(=O)Nc2ccc(F)cc2S(C)(=O)=O)C1=O (racemic) [Compound 1483] | 40 | 40 | 70 | 30 | 60 | 80 | 0 | 0 | 0 | 0 | 0 | 0 | 30 | 20 | 40 | 20 | 40 | 80 | 30 | 40 | pest or weed control at 250 g/ha [7]: 70%; pest or weed control at 15.625 g/ha [8]: 30%; pest or weed control at 62.5 g/ha [8]: 60%; pest or weed control at 250 g/ha [8]: 70%; pest or weed control at 15.625 g/ha [9]: 0%; pest or weed control at 62.5 g/ha [9]: 0%; pest or weed control at 250 g/ha [9]: 0%; pest or weed control at 15.625 g/ha [10]: 10%; pest or weed control at 62.5 g/ha [10]: 10%; pest or weed control at 250 g/ha [10]: 30%; plant injury at 15.625 g/ha (corn (Zea mays) [11]): 20%; plant injury at 62.5 g/ha (corn (Zea mays) [11]): 30%; plant injury at 250 g/ha (corn (Zea mays) [11]): 50%; pest or weed control at 15.625 g/ha [12]: 40%; pest or weed control at 62.5 g/ha [12]: 30%; pest or weed control at 250 g/ha [12]: 60% |
| CN1C[C@@H](c2cnc(Cl)c(F)c2)[C@H](C(=O)Nc2cccc(F)c2F)C1=O (racemic) [Compound 1486] | 30 | 60 | 90 | 40 | 90 | 90 | 0 | 0 | 0 | 0 | 0 | 10 | 10 | 20 | 40 | 0 | 0 | 60 | 40 | 60 | pest or weed control at 250 g/ha [7]: 70%; pest or weed control at 15.625 g/ha [8]: 60%; pest or weed control at 62.5 g/ha [8]: 60%; pest or weed control at 250 g/ha [8]: 70%; pest or weed control at 15.625 g/ha [9]: 0%; pest or weed control at 62.5 g/ha [9]: 0%; pest or weed control at 250 g/ha [9]: 0%; pest or weed control at 15.625 g/ha [10]: 0%; pest or weed control at 62.5 g/ha [10]: 0%; pest or weed control at 250 g/ha [10]: 10%; plant injury at 15.625 g/ha (corn (Zea mays) [11]): 10%; plant injury at 62.5 g/ha (corn (Zea mays) [11]): 10%; plant injury at 250 g/ha (corn (Zea mays) [11]): 60%; pest or weed control at 15.625 g/ha [12]: 0%; pest or weed control at 62.5 g/ha [12]: 0%; pest or weed control at 250 g/ha [12]: 30% |
| CN1C[C@@H](c2ccc(C(F)(F)F)nc2)[C@H](C(=O)Nc2cccc(F)n2)C1=O (racemic) [Compound 1491] | 0 | 20 | 90 | 0 | 50 | 80 | 0 | 0 | 0 | 0 | 0 | 0 | 0 | 0 | 0 | 0 | 0 | 0 | 0 | 20 | pest or weed control at 250 g/ha [7]: 60%; pest or weed control at 15.625 g/ha [8]: 0%; pest or weed control at 62.5 g/ha [8]: 20%; pest or weed control at 250 g/ha [8]: 60%; pest or weed control at 15.625 g/ha [9]: 0%; pest or weed control at 62.5 g/ha [9]: 0%; pest or weed control at 250 g/ha [9]: 10%; pest or weed control at 15.625 g/ha [10]: 0%; pest or weed control at 62.5 g/ha [10]: 0%; pest or weed control at 250 g/ha [10]: 0%; plant injury at 15.625 g/ha (corn (Zea mays) [11]): 0%; plant injury at 62.5 g/ha (corn (Zea mays) [11]): 0%; plant injury at 250 g/ha (corn (Zea mays) [11]): 0%; pest or weed control at 15.625 g/ha [12]: 0%; pest or weed control at 62.5 g/ha [12]: 0%; pest or weed control at 250 g/ha [12]: 0% |
